Measurements from paper PMC8069214, “Synthesis, Biological Evaluation, and Molecular Modeling of Aza-Crown Ethers” (Molecules, 2021).
Like-named read-outs stand apart in the source and are kept apart here.

What was measured:
Format in all cases: cell-based
[1] = biological target: T1, FPR1 (Homo sapiens, UniProt P21462); assay: Inhibition of fMLF-induced [Ca2+]i flux in FPR1-HL60 cells; settings: 10 min preincubation, 5 nM fMLF; N.A. = no activity at < 50 µM; read-out: FPR1/FPR2 Agonist-Induced Δ[Ca^2+]i FPR1-HL60 IC50
T1 construct: expressed in transfected cells
T1 sequence (P21462 1-350): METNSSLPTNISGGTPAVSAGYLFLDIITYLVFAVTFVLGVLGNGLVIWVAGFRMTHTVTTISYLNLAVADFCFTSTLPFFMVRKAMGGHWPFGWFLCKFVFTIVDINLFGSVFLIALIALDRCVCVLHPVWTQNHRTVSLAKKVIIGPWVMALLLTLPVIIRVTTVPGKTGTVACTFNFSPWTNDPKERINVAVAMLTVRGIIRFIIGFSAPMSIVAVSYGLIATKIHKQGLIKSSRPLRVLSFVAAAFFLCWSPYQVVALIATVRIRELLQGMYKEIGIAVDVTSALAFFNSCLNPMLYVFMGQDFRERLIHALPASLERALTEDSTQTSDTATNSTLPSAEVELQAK
Method: Since these compounds elevated neutrophil [Ca^2+]i, and cytosolic Ca^2+ flux is a key component of neutrophil activation, we evaluated if they could alter neutrophil activation by FPR1 or FPR2 agonists. Neutrophils and FPR-transfected HL60 cells were preincubated for 10 min with crown ether compounds, and [Ca^2+]i flux was stimulated with either an FPR1 agonist (fMLF for human neutrophils and FPR1-HL60 cells) or an FPR2 agonist (WKYMVM for FPR2-HL60 cells).
Human promyelocytic leukemia HL60 cells stably transfected with FPR1 (FPR1-HL60 cells) or FPR2 (FPR2-HL60 cells) (kind gifts from Dr. Marie-Josephe Rabiet, INSERM, Grenoble, France) were cultured in RPMI 1640 medium supplemented with 10% heat-inactivated fetal calf serum, 10 mM HEPES, 100 μg/mL streptomycin, 100 U/mL penicillin, and G418 (1 mg/mL). Although stable cell lines are cultured under G418 selection pressure, G418 may affect some assays, so it was removed in the last round of culture before assays were performed.
(§1) Changes in neutrophil intracellular Ca^2+ concentrations ([Ca^2+]i) were measured with a FlexStation 3 scanning fluorometer (Molecular Devices, Sunnyvale, CA, USA). Briefly, human neutrophils were suspended in HBSS^−, loaded with Fluo-4AM at a final concentration of 1.25 μg/mL, and incubated for 30 min in the dark at 37 °C. After dye loading, the cells were washed with HBSS^−, resuspended in HBSS^+, separated into aliquots, and loaded into the wells of flat-bottom, half-area well black microtiter plates (2 × 10^5 cells/well). To assess the direct effects of test compounds on Ca^2+ flux, the compounds were added to the wells (final concentration of DMSO was 1%), and changes in fluorescence were monitored (λex = 485 nm, λem = 538 nm) every 5 s for 240 s at room temperature after addition of the test compound. To evaluate inhibitory effects of the compounds on FPR1/FPR2-dependent Ca^2+ flux, the compounds were added to the wells (final concentration of DMSO was 1%) with cells (human neutrophils or FPR1/FPR2 HL60 cells). The samples were preincubated for 10 min, followed by addition of 5 nM fMLF (for human neutrophils or FPR1-HL60 cells) or 5 nM WKYMVM (for FPR2-HL60 cells). The maximum change in fluorescence, expressed in arbitrary units over baseline, was used to determine the agonist response. Responses were normalized to the response induced by 5 nM fMLF or 5 nM WKYMVM, which were assigned as 100%. Curve fitting (at least five or six points) and calculation of median effective concentration values (EC50 or IC50) were performed by nonlinear regression analysis of the dose–response curves generated using Prism 7 (GraphPad Software, Inc., San Diego, CA, USA). Efficacy was determined by comparing individual responses activated by the test compounds to that induced by a positive control (5 nM fMLF), which was assigned a value of 100%.

[2] = tested on: human neutrophils; assay: Ca2+ mobilization assay, direct effect of compounds on [Ca2+]i; settings: Neutrophil; for Emax: % of the response induced by 5 nM fMLF, read-out: Efficacy (converted)
From the text: We screened 24 aza- and diaza-crown ethers with adamantyl, adamantylalkyl, aminomethylbenzoyl, and ε-aminocaproyl substituents for their Ca^2+ ionophore effects in human neutrophils. To monitor cytoplasmic Ca^2+ levels, we used the fluorescent Ca^2+ indicator Fluo-4, which is a dynamic single-wavelength fluorescent Ca^2+ indicator. Increases in fluorescence intensity (λex = 485 nm, λem = 538 nm) reflect the rise in cytoplasmic Ca^2+ concentrations ([Ca^2+]i; see Materials and Methods).
as §1

[3] = tested on: human neutrophils; assay: fMLF-induced neutrophil chemotaxis (ChemoTx chambers); settings: 1 h, 1 nM fMLF, 60 min migration
Method: Human neutrophils were suspended in HBSS^+ containing 2% (v/v) heat-inactivated fetal bovine serum (2 × 10^6 cells/mL), and effects of the compounds on fMLF-induced chemotaxis was analyzed in 96-well ChemoTx chemotaxis chambers (Neuroprobe, Gaithersburg, MD, USA). In brief, neutrophils were preincubated with the indicated concentrations of the test compounds or DMSO for 20 min at room temperature and added to the upper wells of the ChemoTx chemotaxis chambers. The lower wells were loaded with 30 µL of HBSS^+ containing 2% (v/v) fetal bovine serum and the indicated concentrations of test sample plus 1 nM fMLF, DMSO (negative control), or 1 nM fMLF as a positive control. Neutrophils were added to the upper wells and allowed to migrate through the 5.0-µm pore polycarbonate membrane filter for 60 min at 37 °C and 5% CO2. The number of migrated cells was determined by measuring ATP in lysates of transmigrated cells using a luminescence-based assay (CellTiter-Glo; Promega, Madison, WI, USA), and luminescence measurements were converted to absolute cell numbers by comparison of the values with standard curves obtained with known numbers of neutrophils. Curve fitting (at least eight to nine points) and calculation of median effective concentration values (IC50) were performed by nonlinear regression analysis of the dose-response curves generated using Prism 5.

[4] = Homo sapiens, elevation of [Ca2+]i, Fluo-4, N.A. = no activity was found at concentration < 50 µM, read-out: EC50, effect on [Ca^2+]i flux in human neutrophils
[5] = reciprocal of EC50 in human neutrophils, inactive compounds assigned zero, read-out: 1/[EC50] (converted)

SMILES | IC50 [1] [µM] | Emax ([2]; Homo sapiens) [%] | EC50 [2, 4] [µM] | EC50 [2, 5] [µM] | IC50 [3] [µM]
O=C(CC12CC3CC(CC(C3)C1)C2)N1CCOCCOCCN(C(=O)CC23CC4CC(CC(C4)C2)C3)CCOCC1 [Compound 15, N,N’-bis[2-(1-adamantyl)acetyl]-4,10-diaza-15-crown-5] | 4.8 ± 0.9 | 110 | 4.7 ± 1.5 | 4.7 | 5.7 ± 0.2
O=C(CC12CC3CC(CC(C3)C1)C2)N1CCOCCOCCN(C(=O)CC23CC4CC(CC(C4)C2)C3)CCOCCOCC1 [Compound 17, N,N’-bis[2-(1-adamantyl)acetyl]-4,13-diaza-18-crown-6] | 3.7 ± 0.7 | – | 15.9 ± 2.5 | 15.9 | 5.2 ± 1.7
O=C(N1CCOCCOCCN(C(=O)C23CC4CC(CC(C4)C2)C3)CCOCC1)C12CC3CC(CC(C3)C1)C2 [Compound 13, N,N’-bis[1-oxo-1-(1-adamantyl)methyl]-4,10-diaza-15-crown-5] | 16.5 ± 3.2 | 25 to 50 | 6.9 ± 2.1 | 6.9 | 5.8 ± 1.4
O=C(N1CCOCCOCCOCCN(C(=O)C23CC4CC(CC(C4)C2)C3)CCOCC1)C12CC3CC(CC(C3)C1)C2 [Compound 14, N,N’-bis[1-oxo-1-(1-adamantyl)methyl]-4,10-diaza-18-crown-6] | 11.6 ± 2.1 | 25 to 50 | 9.5 ± 2.7 | 9.5 | 6.1 ± 2.1
